Measured values as given in US9688651B2, “Geranyl geranyl acetone analogs and uses thereof” (NYKEN Holding B.V., priority 2012, dated 2017).

Legend:
HSP70 [1] = assay: HSP70 protein boosting in HL-1 cardiomyocytes after mild heat shock (Western blot); type: cell-based, mouse; conditions: for induction of mammalian HSP70 protein expression: HL-1, mild heat shock, 10 μM, 6 hours; for HSP boosting HL-1 cardiomyocytes Protein HSP70: mild heat shock 44°C 10 min, then compound 10 μM for 6 hours, Western blot
Description: HL-1 atrial myocytes, a cell line derived from adult mouse atria were obtained from Dr. William Claycomb (Louisiana State University, New Orleans, La., USA). The myocytes were maintained in Complete Claycomb Medium (JRH, UK) supplemented with 100 μM norepinephrine stock (consisting of 10 mM norepinephrine (Sigma, The Netherlands) dissolved in 0.3 mM L-ascorbic acid (Sigma)), 4 mM L-glutamine (Gibco, The Netherlands) and 10% FBS (Sigma). The myocytes were cultured in flasks coated with 0.02% gelatin (Sigma), in a 5% CO2 atmosphere at 37° C.
HL-1 cardiomyocytes were subjected to a mild heat shock of 44° C. for 10 minutes. After a recovery of 10 minutes (37 degrees 5% CO2), compounds were added in a final concentration of 10 μM (dissolved in DMSO, final concentration 0.1%). To control myocytes, 0.1% DMSO was added. After six hours the cells were lysed in RIPA buffer and used for Western blotting as described previously.^3, 10
(§1) Western-blot analysis was performed as described previously^3, 10. Equal amount of protein in SDS-PAGE sample buffer was sonicated before separation on 10% PAA-SDS gels. After transfer to nitrocellulose membranes (Stratagene, The Netherlands), membranes were incubated with primary antibodies against HSP25 (Stressgen, The Netherlands, SPA-801, 1:1000), HSP27 (Stressgen, SPA-800, 1:1000), HSP70 (Stressgen, SPA-810, 1:1000), GAPDH (Affinity Reagents, The Netherlands) or PARP (Santa Cruz, The Netherlands, sc-7150, 1:500). Horseradish peroxidase-conjugated anti-mouse or anti-rabbit (Santa-Cruz Biotechnology, The Netherlands) was used as secondary antibody. Signals were detected by the ECL-detection method (Amersham, The Netherlands) and quantified by densitometry using GeneTools software from Syngene (The Netherlands).
Compounds were also screened for HSP70 boosting effects. Hereto, HL-1 cardiomyocytes were first subjected to a mild heat shock which activates the Heat Shock Factor. After the mild heat shock, compound (10 μM) was added to the medium of HL-1 cardiomyocytes for 6 hours, followed by determination of the HSP70 amount.

HSP70 [2] = assay: HSP70 mRNA (qPCR) in HL-1 cardiomyocytes after mild heat shock; type: cell-based, mouse; conditions: then compound 10 μM for 6 hours
Description: (§2) HL-1 cardiomyocytes were subjected to a mild heat shock of 44° C. for 10 minutes. After a recovery of 10 minutes (37 degrees 5% CO2), compounds were added in a final concentration of 10 μM (dissolved in DMSO, final concentration 0.1%). To control myocytes, 0.1% DMSO was added. After six hours the cells were lysed in RIPA buffer and used for Western blotting as described previously.^3, 10 Compounds were also screened for their ability to upregulate HSP gene expression. Hereto, HL-1 cardiomyocytes were first subjected to a mild heat shock which activates the Heat Shock Factor. After the mild heat shock, compound (10 μM) was added to the medium of HL-1 cardiomyocytes for 6 hours, followed by determination of HSP70, HSP25, HSP90 and HSP40 which are targets of the heat shock factor 1 (HSF1) transcription factor. In addition, we determined mRNA levels of the gene encoding the glucose-responsive protein 78 (Grp78) which is HSF1-independent.

HSP25 = HSP25 mRNA (qPCR) in HL-1 cardiomyocytes after mild heat shock; type: cell-based, mouse; set-up: key: 0 = no induction HSP levels; + = 2-10-fold induction; ++ = 10-30-fold induction; +++ = > 30-fold induction; conditions: then compound 10 μM for 6 hours
Description: as §2

HSP90 = HSP90 mRNA (qPCR) in HL-1 cardiomyocytes after mild heat shock; type: cell-based, mouse; conditions: then compound 10 μM for 6 hours
Description: as §2

HSP40 = HSP40 mRNA (qPCR) in HL-1 cardiomyocytes after mild heat shock; type: cell-based, mouse; conditions: then compound 10 μM for 6 hours
Description: as §2

[3] = system: glucose-responsive protein 78 (Grp78); assay: Grp78 mRNA (qPCR, HSF1-independent) in HL-1 cardiomyocytes; type: cell-based, mouse; set-up: key to HSP boosting HL-1 cardiomyocytes mRNA (qPCR) Grp78 Not HSF1: 0 = no induction HSP levels; + = 2-10-fold induction; ++ = 10-30-fold induction; +++ = > 30-fold induction; conditions: for upregulation of Grp78 mRNA: HL-1, mild heat shock, 10 μM, 6 hours; for HSP boosting HL-1 cardiomyocytes mRNA (qPCR) Grp78 Not HSF1: mild heat shock, then compound 10 μM for 6 hours
Description: as §2

HSP70 [4] = assay: Hsp70 induction in murine proximal tubule (MPT) cells (Western blot); type: cell-based; conditions: 40 μM, 5 hours, outperformed positive control GGA
Description: Murine proximal tubule (MPT) cells were isolated and cultured as described previously (Borkan et al. Heat stress ameliorates ATP depletion-induced sublethal injury in mouse proximal tubule cells. Am. J. Physiol. 1997; F347-55).
The MPT cells were exposed to 40 μM of compound for 5 hours, after which the cells were harvested in RIPA buffer followed by Western blotting.
For Western-blot analysis, equal amount of protein in SDS-PAGE sample buffer was separated on 10% PAA-SDS gels. After transfer to nitrocellulose membranes (Stratagene, USA), membranes were incubated with primary antibodies against HSP70 (Enzo C92F3A/StressGen SP810) or beta-actin (Sigma A541). Horseradish peroxidase-conjugated anti-mouse or anti-sheep (Jackson ImmunoRes) was used as secondary antibody. Signals were detected by the ECL-detection method (Amersham).

[5] = system: HSP70, HSP25, HSP90 and HSP40; assay: Upregulation of HSP gene expression (HSF1 targets) in HL-1 cardiomyocytes; type: cell-based, mouse; conditions: HL-1, mild heat shock, 10 μM, 6 hours
Description: as §2

[6] = system: MCF-7 breast cancer cells; assay: MCF-7 cell death, ratio death/living cells (trypan blue); type: cell-based, human; set-up: key to Cell Death MCF-7 cancer cells Death/living 100 μM: 0 = no dead cells; + = P < 0.05; ++ = P < 0.01; +++ = P < 0.001; conditions: 100 μM; 16-20 hours; trypan blue
Description: MCF-7 breast cancer cells were cultured in DMEM supplemented with 10% FCS. […] Ratio death and living cells was determined by using trypan blue staining of death cells. The cell pellets were lysed in RIPA buffer and used for Western blot analysis.
Since we observed that some compounds aggravate tachypacing-induced contractile dysfunction, we next investigated if these compounds can induce programmed cell death in a human breast cancer cell-line MCF-7. […] In total 28 compounds were tested for cell death. […] GGA was used as a control as well as non-treated MCF-7 cells. […] The findings indicate that GGA-like compounds which aggravate heart failure can induce programmed cell death in MCF-7 breast cancer cell-line.

HSP27 = HSP27 Western blot in MCF-7 cells; type: cell-based, human; set-up: key: + = P < 0.05; ++ = P < 0.01; +++ = P < 0.001; conditions: MCF-7 lysate, 16-20 hours
Description: (§3) MCF-7 breast cancer cells were cultured in DMEM supplemented with 10% FCS. Test compounds were added to the medium in a final concentration of […] for 16-20 hours. Ratio death and living cells was determined by using trypan blue staining of death cells. The cell pellets were lysed in RIPA buffer and used for Western blot analysis.
as §1

HSP70 [7] = assay: HSP70 Western blot in MCF-7 cells; type: cell-based, human; set-up: key: + = P < 0.05; ++ = P < 0.01; +++ = P < 0.001; conditions: MCF-7 lysate, 16-20 hours
Description: as §3, §1

PARP = PARP cleavage in MCF-7 cells (Western blot); type: cell-based, human; set-up: key to Cell Death MCF-7 cancer cells PARP: 0 = no dead cells; + = P < 0.05; ++ = P < 0.01; +++ = P < 0.001; conditions: MCF-7 lysate, Western blot, 16-20 hours
Description: as §3, §1
Since we observed that some compounds aggravate tachypacing-induced contractile dysfunction, we next investigated if these compounds can induce programmed cell death in a human breast cancer cell-line MCF-7. Hereto, MCF-7 cells were incubated for 16 hours with 10 μM of a test compound after which the number of death and living cells was determined. In total 28 compounds were tested for cell death. […] GGA was used as a control as well as non-treated MCF-7 cells. […] The findings indicate that GGA-like compounds which aggravate heart failure can induce programmed cell death in MCF-7 breast cancer cell-line.

Row | SMILES | induction of mammalian HSP70 protein expression (HSP70 [1]) | HSP boosting HL-1 cardiomyocytes mRNA (qPCR) HSP 70 (HSP70 [2]) | HSP boosting HL-1 cardiomyocytes mRNA (qPCR) HSP 25 (HSP25) | HSP boosting HL-1 cardiomyocytes mRNA (qPCR) HSP 90 (HSP90) | HSP boosting HL-1 cardiomyocytes mRNA (qPCR) HSP 40 (HSP40) | upregulation of Grp78 mRNA [3] | HSP boosting HL-1 cardiomyocytes mRNA (qPCR) Grp78 Not HSF1 [3] | induction of HSP70 expression in renal (MPT) cells (HSP70 [4]) | induction of HSP gene expression [5] | HSP boosting HL-1 cardiomyocytes Protein HSP70 (HSP70 [1]) | Cell Death MCF-7 cancer cells Death/living 100 μM [6] | Cell Death MCF-7 cancer cells HSP 27 (HSP27) | Cell Death MCF-7 cancer cells HSP 70 (HSP70 [7]) | Cell Death MCF-7 cancer cells PARP (PARP)
1 | CC(C)=CCC/C(C)=C/CNS(=O)(=O)C(F)(F)F [Compound 52] | potent inducers | + (+ = 2-10-fold induction) | + (+ = 2-10-fold induction) | + (+ = 2-10-fold induction) | + (+ = 2-10-fold induction) | no upregulation | 0 | strong inducers | strong inducers | – | – | – | – | –
2 | CCOC(=O)C(C/C=C(\C)CCC=C(C)C)C(=O)c1ccccc1O (centres unmarked) [Compound 61, (E)-Ethyl 2-(2-hydroxybenzoyl)-5,9-dimethyldeca-4,8-dienoate] | potent inducers | + (+ = 2-10-fold induction) | + (+ = 2-10-fold induction) | + (+ = 2-10-fold induction) | + (+ = 2-10-fold induction) | no upregulation | 0 | strong inducers | strong inducers | ++ (++ = 10-30-fold induction) | 0 | 0 | 0 | 0
3 | CC(C)=CCC/C(C)=C/CNS(C)(=O)=O [Compound 51, (E)-N-(3,7-Dimethylocta-2,6-dien-1-yl)methanesulfonamide] | potent inducers | + (+ = 2-10-fold induction) | + (+ = 2-10-fold induction) | + (+ = 2-10-fold induction) | + (+ = 2-10-fold induction) | no upregulation | 0 | strong inducers | strong inducers | – | 0 | ++ (++ = P < 0.01) | + (+ = P < 0.05) | 0
4 | CC(=O)CC(=O)CC/C=C(\C)CCC=C(C)C [Compound 28, (E)-8,12-Dimethyltrideca-7,11-Diene-2,4-Dione] | potent inducers | + (+ = 2-10-fold induction) | + (+ = 2-10-fold induction) | + (+ = 2-10-fold induction) | + (+ = 2-10-fold induction) | no upregulation | 0 | – | strong inducers | – | 0 | ++ (++ = P < 0.01) | 0 | 0
5 | CC(C)=CCC/C(C)=C/CNC(=O)CCC(=O)O [Compound 46] | potent inducers | + (+ = 2-10-fold induction) | ++ (++ = 10-30-fold induction) | ++ (++ = 10-30-fold induction) | + (+ = 2-10-fold induction) | no upregulation | 0 | strong inducers | strong inducers | ++ (++ = 10-30-fold induction) | – | – | – | –
6 | CC(C)=CCC/C(C)=C/CCc1cc(O)n[nH]1 [Compound 62, (E)-5-(4,8-dimethylnona-3,7-dien-1-yl)-1H-pyrazol-3-ol] | potent inducers | + (+ = 2-10-fold induction) | 0 | + (+ = 2-10-fold induction) | + (+ = 2-10-fold induction) | no upregulation | 0 | strong inducers | strong inducers | ++ (++ = 10-30-fold induction) | – | – | – | –
